Source: US4605643A, “Ovine GRF” (The Salk Institute for Biological Studies, priority 1984, dated 1986)

Tested on: rat pituitary cells
Test: in vitro release of growth hormone from cultured rat pituitary cells (ir GH by radioimmunoassay), side-by-side with hGRF(1-44)-NH2
Assay type: cell-based
Description: To determine the effectiveness of the peptide to promote the release of growth hormone, in vitro assays are carried out using synthetic hGRF(1-44)-NH2 in side-by-side comparison with equimolar concentrations of the extracted and purified oGRF(1-44) of Example II. hGRF thus serves as a GRF Reference Standard having a known effectiveness to promote the release of growth hormone from rat pituitary cells. Cultures are used which include cells of rat pituitary glands removed some four to five days previously. Both cultures of a defined standard medium and cultures which are considered optimal for the secretion of growth hormone are used for the comparative testing, in the general manner described in Brazeau, et al. Regulatory Peptides, 1, 255, 1981. Incubation with the substance to be tested is carried out for 3 to 4 hours, and aliquots of the culture medium are removed and processed to measure their contents in immunoreactive GH(ir GH) by a well-characterized radioimmunoassay.

[1] = equimolar ratios, incubation 3 to 4 hours, ir GH in culture medium by RIA
[2] = multiple doses factorial design experiments

In the case of CC[C@H](C)[C@H](NC(=O)[C@H](C)NC(=O)[C@H](CC(=O)O)NC(=O)[C@H](C)NC(=O)[C@@H](N)Cc1ccc(O)cc1)C(=O)N[C@@H](Cc1ccccc1)C(=O)N[C@H](C(=O)N[C@@H](CC(N)=O)C(=O)N[C@@H](CO)C(=O)N[C@@H](Cc1ccc(O)cc1)C(=O)N[C@@H](CCCNC(=N)N)C(=O)N[C@@H](CCCCN)C(=O)N[C@H](C(=O)N[C@@H](CC(C)C)C(=O)NCC(=O)N[C@@H](CCC(N)=O)C(=O)N[C@@H](CC(C)C)C(=O)N[C@@H](CO)C(=O)N[C@@H](C)C(=O)N[C@@H](CCCNC(=N)N)C(=O)N[C@@H](CCCCN)C(=O)N[C@@H](CC(C)C)C(=O)N[C@@H](CC(C)C)C(=O)N[C@@H](CCC(N)=O)C(=O)N[C@@H](CC(=O)O)C(=O)N[C@H](C(=O)N[C@@H](CCSC)C(=O)N[C@@H](CC(N)=O)C(=O)N[C@@H](CCCNC(=N)N)C(=O)N[C@@H](CCC(N)=O)C(=O)N[C@@H](CCC(N)=O)C(=O)NCC(=O)N[C@@H](CCC(=O)O)C(=O)N[C@@H](CCCNC(=N)N)C(=O)N[C@@H](CC(N)=O)C(=O)N[C@@H](CCC(N)=O)C(=O)N[C@@H](CCC(=O)O)C(=O)N[C@@H](CCC(N)=O)C(=O)NCC(=O)N[C@@H](C)C(=O)N[C@@H](CCCCN)C(=O)N[C@H](C(=O)N[C@@H](CCCNC(=N)N)C(=O)N[C@@H](CC(C)C)C(N)=O)C(C)C)[C@@H](C)CC)[C@@H](C)CC)[C@@H](C)O [oGRF(1-44)], the “intrinsic biological activity (release of growth hormone) compared with synthetic hGRF(1-44)-NH2” value [1] is reported as “full intrinsic biological activity of the synthetic peptide”, the “potency (release of growth hormone) compared with synthetic hGRF(1-44)-NH2” value [1] is reported as “close to the same potency” and the “intrinsic activity compared with hGRF(1-44)-NH2” value [2] is reported as “about the same intrinsic activity as hGRF(1-44)-NH2”. For the same molecule, the “specific activity relative to hGRF(1-44)-NH2” value [2] was “about 70 % of hGRF(1-44)-NH2”.
